Where “and” joins values, the source holds several entries; their conditions need not be identical. Equal values may be shown once.
Assays:
Lysine--tRNA ligase = Lysine--tRNA ligase (Plasmodium falciparum (isolate 3D7), UniProt Q8IDJ8); assay: Pf-KRS-1 (Lysyl-RNA Synthetase-1, KRS-1, cytosolic KRS) from Plasmodium falciparum. Inhibitor assay, 384 well plate, luminescence read.; type: functional
ClpP1P2 = ClpP1P2 (Mycobacterium tuberculosis (strain ATCC 25618 / H37Rv), UniProt P9WPC3+P9WPC5); assay: in vitro assay to detect presence of AMC directly proportional to the activity of ClpP1P2. GHDDI collaboration.; type: functional
Chain of ClpP1P2 (P9WPC5 whole entry): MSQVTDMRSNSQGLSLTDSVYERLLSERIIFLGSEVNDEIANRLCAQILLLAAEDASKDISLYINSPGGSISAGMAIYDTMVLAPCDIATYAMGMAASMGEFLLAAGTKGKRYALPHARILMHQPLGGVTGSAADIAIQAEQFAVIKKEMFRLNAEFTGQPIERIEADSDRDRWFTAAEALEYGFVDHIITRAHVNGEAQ
Chain of ClpP1P2 (P9WPC3 whole entry): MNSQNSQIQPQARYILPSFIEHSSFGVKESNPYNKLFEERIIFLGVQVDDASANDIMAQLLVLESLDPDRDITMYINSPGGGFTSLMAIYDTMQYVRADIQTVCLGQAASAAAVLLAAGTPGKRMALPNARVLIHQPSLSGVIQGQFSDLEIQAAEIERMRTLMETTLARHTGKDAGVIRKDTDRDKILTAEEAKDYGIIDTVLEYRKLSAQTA

Leishmania donovani = assay: Leishmania intramacrophage assay; type: functional, organism-based; conditions: Leishmania donovani
[1] = target: Polyketide synthase Pks13 (Mycobacterium tuberculosis (strain ATCC 25618 / H37Rv), UniProt I6X8D2); assay: Mycobacterium tuberculosis Polyketide synthase 13 Thioesterase (PKS13); type: functional
Chain of Polyketide synthase Pks13 (I6X8D2 whole entry): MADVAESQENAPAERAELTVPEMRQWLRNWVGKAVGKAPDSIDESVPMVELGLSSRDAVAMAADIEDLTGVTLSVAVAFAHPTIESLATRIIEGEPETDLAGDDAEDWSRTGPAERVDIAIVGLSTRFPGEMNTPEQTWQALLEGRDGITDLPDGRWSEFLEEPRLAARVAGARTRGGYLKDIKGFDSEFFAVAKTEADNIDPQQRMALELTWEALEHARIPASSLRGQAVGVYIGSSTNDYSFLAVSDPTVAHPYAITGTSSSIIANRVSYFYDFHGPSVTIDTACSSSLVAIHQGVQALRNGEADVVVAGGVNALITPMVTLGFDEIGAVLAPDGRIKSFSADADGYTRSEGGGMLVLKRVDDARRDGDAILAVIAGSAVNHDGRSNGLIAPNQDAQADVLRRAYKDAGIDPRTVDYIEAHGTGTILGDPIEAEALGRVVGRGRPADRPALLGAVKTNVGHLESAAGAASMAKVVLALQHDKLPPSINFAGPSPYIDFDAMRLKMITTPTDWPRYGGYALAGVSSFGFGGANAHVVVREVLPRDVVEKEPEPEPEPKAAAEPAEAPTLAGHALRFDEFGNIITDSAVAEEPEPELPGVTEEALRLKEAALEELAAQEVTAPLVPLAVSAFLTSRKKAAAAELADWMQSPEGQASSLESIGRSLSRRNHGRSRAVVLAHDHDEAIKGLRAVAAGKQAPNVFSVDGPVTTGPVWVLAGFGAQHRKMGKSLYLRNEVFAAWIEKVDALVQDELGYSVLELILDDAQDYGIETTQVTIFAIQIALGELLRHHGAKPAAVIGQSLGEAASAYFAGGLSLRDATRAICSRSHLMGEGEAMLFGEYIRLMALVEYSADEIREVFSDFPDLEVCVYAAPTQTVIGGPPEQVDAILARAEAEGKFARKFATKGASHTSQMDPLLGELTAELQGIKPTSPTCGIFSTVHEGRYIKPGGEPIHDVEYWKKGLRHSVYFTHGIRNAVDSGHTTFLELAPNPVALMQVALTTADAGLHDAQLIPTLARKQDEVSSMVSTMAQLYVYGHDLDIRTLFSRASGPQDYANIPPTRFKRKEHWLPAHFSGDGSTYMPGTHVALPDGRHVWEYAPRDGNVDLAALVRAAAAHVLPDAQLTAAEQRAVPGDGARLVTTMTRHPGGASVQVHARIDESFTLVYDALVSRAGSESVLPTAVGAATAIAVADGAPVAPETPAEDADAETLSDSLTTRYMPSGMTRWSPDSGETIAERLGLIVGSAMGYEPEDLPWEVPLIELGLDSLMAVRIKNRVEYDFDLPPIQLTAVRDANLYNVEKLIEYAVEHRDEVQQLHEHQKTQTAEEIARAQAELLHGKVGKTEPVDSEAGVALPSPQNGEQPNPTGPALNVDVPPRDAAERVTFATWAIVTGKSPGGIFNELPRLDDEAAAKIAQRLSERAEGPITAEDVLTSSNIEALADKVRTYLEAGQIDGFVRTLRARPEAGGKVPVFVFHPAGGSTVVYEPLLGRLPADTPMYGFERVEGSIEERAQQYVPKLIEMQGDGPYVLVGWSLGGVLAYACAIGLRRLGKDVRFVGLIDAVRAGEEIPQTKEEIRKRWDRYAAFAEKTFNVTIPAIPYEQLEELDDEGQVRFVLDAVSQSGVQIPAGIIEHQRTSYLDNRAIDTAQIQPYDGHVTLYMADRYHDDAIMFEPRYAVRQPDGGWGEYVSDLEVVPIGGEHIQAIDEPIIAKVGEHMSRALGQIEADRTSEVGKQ

Histidine--tRNA ligase = target: T1, Histidine--tRNA ligase (Leishmania infantum, UniProt A4I591); assay: Leishmania infantum Histidine tRNA synthetase (LdHisRS); type: functional
T1 sequence (A4I591 whole entry): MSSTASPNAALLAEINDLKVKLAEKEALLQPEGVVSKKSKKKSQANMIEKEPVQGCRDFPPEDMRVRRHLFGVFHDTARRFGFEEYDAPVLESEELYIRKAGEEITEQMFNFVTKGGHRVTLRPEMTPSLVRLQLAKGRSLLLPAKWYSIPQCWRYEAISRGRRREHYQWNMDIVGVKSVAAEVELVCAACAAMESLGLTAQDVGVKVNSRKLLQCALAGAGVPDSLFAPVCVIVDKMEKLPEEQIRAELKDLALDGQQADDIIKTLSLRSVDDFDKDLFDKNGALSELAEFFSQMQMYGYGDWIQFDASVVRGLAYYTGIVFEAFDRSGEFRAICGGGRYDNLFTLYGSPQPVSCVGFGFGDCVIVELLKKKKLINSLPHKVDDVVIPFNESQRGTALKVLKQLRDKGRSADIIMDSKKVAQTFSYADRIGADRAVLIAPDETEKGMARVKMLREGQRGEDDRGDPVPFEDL

[2] = microbe, parasite or virus in culture; conditions: Mycobacterium tuberculosis, 72 h, read-out: pIC50 (converted)
[3] = microbe, parasite or virus in culture; conditions: Mycobacterium tuberculosis, 96 h, read-out: pIC50 (converted)
[4] = target: T2, Coenzyme A biosynthesis bifunctional protein CoaBC (Mycobacterium tuberculosis (strain ATCC 25618 / H37Rv), UniProt P9WNZ1); assay: Biomol Green assay for MtCoaBC inhibitor, OD650 read; type: functional
T2 sequence (P9WNZ1 whole entry): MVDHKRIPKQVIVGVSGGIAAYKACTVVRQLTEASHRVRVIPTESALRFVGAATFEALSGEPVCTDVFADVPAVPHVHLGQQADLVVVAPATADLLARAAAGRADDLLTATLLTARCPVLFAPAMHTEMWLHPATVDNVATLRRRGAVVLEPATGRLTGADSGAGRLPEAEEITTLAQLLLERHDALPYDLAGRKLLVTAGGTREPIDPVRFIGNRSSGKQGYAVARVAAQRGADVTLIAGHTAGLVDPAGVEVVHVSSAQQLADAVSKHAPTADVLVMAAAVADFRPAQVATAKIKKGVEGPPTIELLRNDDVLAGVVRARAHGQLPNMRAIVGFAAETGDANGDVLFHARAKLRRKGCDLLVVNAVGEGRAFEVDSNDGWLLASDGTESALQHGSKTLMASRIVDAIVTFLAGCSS

[5] = In vitro enzyme assay to detect hydrolysis of chlorophenol red-beta-D-[…] directly proportional to the number of Toxoplasma stably expressing beta-galactosidase; type: functional, organism-based, Toxoplasma gondii; conditions: for IC50: Toxoplasma gondii
Plasmodium falciparum = assay: Calibr Malaria Delayed Death Assay SOP; type: functional, organism-based; conditions: for IC50: Plasmodium falciparum
Tryptophan--tRNA ligase = Tryptophan--tRNA ligase (Mycobacterium tuberculosis (strain ATCC 25618 / H37Rv), UniProt P9WFT3); assay: Biochemical assay for Mt-TrpRS; type: functional
Chain of Tryptophan--tRNA ligase (P9WFT3 whole entry): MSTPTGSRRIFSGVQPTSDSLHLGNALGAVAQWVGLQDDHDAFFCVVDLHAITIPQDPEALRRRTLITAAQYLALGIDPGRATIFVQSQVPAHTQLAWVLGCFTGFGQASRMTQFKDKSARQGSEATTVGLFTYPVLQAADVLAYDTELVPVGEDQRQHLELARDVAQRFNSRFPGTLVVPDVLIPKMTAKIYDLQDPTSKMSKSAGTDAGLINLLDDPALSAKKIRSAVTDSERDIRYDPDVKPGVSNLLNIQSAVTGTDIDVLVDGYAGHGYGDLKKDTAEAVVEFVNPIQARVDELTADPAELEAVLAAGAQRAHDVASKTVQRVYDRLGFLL

Schistosoma mansoni = assay: High throughput screening of compounds against Schistosoma mansoni motility; type: functional; set-up: dose or concentration left out as unconfirmed

Chain of Lysine--tRNA ligase (Q8IDJ8 whole entry): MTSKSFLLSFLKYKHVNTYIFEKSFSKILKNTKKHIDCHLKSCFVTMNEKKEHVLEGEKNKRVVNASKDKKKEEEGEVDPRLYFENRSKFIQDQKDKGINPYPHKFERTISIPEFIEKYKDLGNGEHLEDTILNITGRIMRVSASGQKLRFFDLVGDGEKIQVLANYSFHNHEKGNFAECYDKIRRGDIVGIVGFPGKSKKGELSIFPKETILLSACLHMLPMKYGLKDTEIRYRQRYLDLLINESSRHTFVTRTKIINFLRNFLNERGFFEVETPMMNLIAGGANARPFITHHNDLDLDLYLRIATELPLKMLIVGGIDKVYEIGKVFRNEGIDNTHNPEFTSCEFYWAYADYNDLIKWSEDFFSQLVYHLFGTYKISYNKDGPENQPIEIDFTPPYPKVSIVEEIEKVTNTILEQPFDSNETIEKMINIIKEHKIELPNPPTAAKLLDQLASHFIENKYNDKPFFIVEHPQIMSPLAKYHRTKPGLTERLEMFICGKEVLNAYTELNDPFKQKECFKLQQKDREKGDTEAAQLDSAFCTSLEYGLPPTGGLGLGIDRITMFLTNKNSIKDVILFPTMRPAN

Structure (SMILES)	IC50 (Lysine--tRNA ligase)	IC50 (Histidine--tRNA ligase)	other results
Cn1cnnc1C1CCN(c2cncc(-n3cccn3)n2)CC1	> 50.1 µM	–	IC50 (ClpP1P2): > 100 µM; IC50 (Leishmania donovani): > 50.1 µM
CCOCCCNC(=O)c1cn(C(C)(C)C)c2ncccc12	–	–	IC50 [1]: > 100 µM
Cc1occc1CN(C)C(=O)Nc1ccc(=O)n(C)c1	> 50.1 µM	9.57 µM and 9.94 µM	–
Cc1nc(CN2CCCC(CCc3cccc(C(F)(F)F)c3)C2)co1 (stereo not drawn)	> 50.1 µM	–	IC50 [2]: 33.3 µM; IC50 [3]: 41.8 µM
COc1ccsc1C(=O)Nc1cc(Cl)c(=O)n(C)c1	> 50.1 µM	12.3 µM and 10.6 µM	IC50 [4]: > 30.2 µM
Cn1nc2c(cc1=O)CN(c1ncnc3sccc13)CC2	> 50.1 µM	6.32 µM and 5.55 µM	IC50 [4]: > 30.2 µM; IC50 [5]: 9.58 µM
COc1ncc(-c2c(C#N)c(N)nc3c2CCc2[nH]ccc2-3)cn1	> 50.1 µM	8.08 µM and 5.62 µM	–
Nc1nc(CC(=O)N2CCCC(CCc3cccc(F)c3)C2)cc(=O)[nH]1 (stereo not drawn)	> 50.1 µM	13.8 µM and 10 µM	–
COCCCN1CCc2cncnc2C1	> 50.1 µM	29.5 µM and 38.3 µM	–
CN(Cc1ccco1)C(=O)Nc1ccc(=O)n(C)c1	> 50.1 µM	11.6 µM and 9.89 µM	–
CCn1cc(CNc2ccc3nccnc3c2)cn1	> 50.1 µM	9.36 µM and 8.25 µM	–
O=C(c1ccc2c(c1)CCCC2)N1CCn2ncnc2C1	> 50.1 µM	–	IC50 [4]: > 30.2 µM
Fc1ccc(C2(CNC3=NCCN3)CCCC2)cc1.I	> 50.1 µM	–	pIC50 (Plasmodium falciparum): 6.191; IC50 (Plasmodium falciparum): 0.629 µM
CCCn1nc2c(cc1=O)CN(CCCS(N)(=O)=O)CC2	> 50.1 µM	31.6 µM and 50.9 µM	–
CCOCC1CCN(C(=O)C(c2ccccc2F)N(C)C)CC1 (stereo not drawn)	> 50.1 µM	–	IC50 [2]: > 50.1 µM; IC50 [3]: > 50.1 µM; IC50 [4]: > 30.2 µM
CC(C(=O)Nc1ccc(Cl)cn1)N1CCc2nn(C)c(=O)cc2C1 (stereo not drawn)	> 50.1 µM	19.9 µM and 23 µM	–
O=C(Cc1ccc(F)cc1)N1CCCC(c2n[nH]c3nccnc23)C1 (stereo not drawn)	> 50.1 µM	–	IC50 (Tryptophan--tRNA ligase): > 195 µM
COCCn1cc(NCc2cn(C)nc2-c2ccncc2)cn1	> 50.1 µM	47.4 µM and 46.6 µM	–
CCc1ccc(-c2cc(C(F)(F)F)nc(N3CCC(N)CC3)n2)cc1	> 50.1 µM	26.9 µM and 24.6 µM	IC50 [2]: 13 µM; IC50 [3]: 15.3 µM; pIC50 (Plasmodium falciparum): 5.997; IC50 (Plasmodium falciparum): 1.03 µM; pIC50 [5]: 5.409; IC50 [5]: 2.22 µM
COCCn1cc(NC(=O)NC(C)CCc2ccccc2)ccc1=O (stereo not drawn)	> 50.1 µM	3.09 µM and 3.5 µM	–
Cn1cccc(NC(=O)N2CCC(COCc3ccccc3)C2)c1=O (stereo not drawn)	> 50.1 µM	3.47 µM and 4.31 µM	–
Cn1nc2c(cc1=O)CN(c1ncnc3ccsc13)CC2	> 50.1 µM	14.1 µM and 17.4 µM	IC50 [5]: 6.44 µM
Oc1ccc(N(CCc2ccccc2)CCn2cncn2)cc1	> 50.1 µM	39.6 µM and 56.7 µM	–
Cc1nnc(N2CCc3cncnc3C2)c(C#N)c1C	> 50.1 µM	21.4 µM and 27.5 µM	–
Cc1ccc(S(=O)(=O)Nc2ccc(=O)n(C)c2)cc1	> 50.1 µM	24.8 µM and 32.1 µM	IC50 (Leishmania donovani): > 50.1 µM
COc1ncc(C)cc1NC(=O)COCC(F)(F)F	> 50.1 µM	25.3 µM and 19.4 µM	–

Structure (SMILES)	IC50 (Lysine--tRNA ligase)	IC50 (Histidine--tRNA ligase)	other results
Cn1cc(Br)cc(NC(=O)CC2CCC2)c1=O	> 50.1 µM	> 100 µM	–
COc1cc(F)c(S(=O)(=O)Nc2cnc(O)cc2C)cc1OC	> 50.1 µM	16.2 µM and 17.5 µM	–
CCC(Cn1ccc2[nH]c(=O)c(C#N)cc2c1=O)OC (stereo not drawn)	> 50.1 µM	–	IC50 (ClpP1P2): > 100 µM
Cc1nnc(NCC(c2ccco2)N2CCCC2)c(C#N)c1C (stereo not drawn)	> 50.1 µM	27.1 µM and 17.8 µM	–
CC(O)CCn1ccc2[nH]c(=O)c(C#N)cc2c1=O (stereo not drawn)	> 50.1 µM	–	IC50 (ClpP1P2): > 100 µM
Cn1nc2c(cc1=O)CN(CC1CCCCO1)CC2 (stereo not drawn)	> 50.1 µM	23.7 µM and 25 µM	–
Cc1cc(=O)n(C)cc1NC(=O)CC1CCC1	> 50.1 µM	7.56 µM and 7.2 µM	–
Cn1cc(Br)cc(NC(=O)CC(C)(C)C)c1=O	> 50.1 µM	13.9 µM and 12 µM	–
COc1ccc(N)c(N2CCN(C(C)=O)CC2)n1	> 50.1 µM	16.5 µM and 15.6 µM	–
Cc1noc(C(C)Nc2ccc3oc(C(C)C)nc3c2)n1 (stereo not drawn)	> 50.1 µM	34.3 µM and 43.8 µM	–
CCCOCC1CCN(C(=O)Cn2cccc(OC)c2=O)C1 (stereo not drawn)	> 50.1 µM	2.01 µM and 1.03 µM and 2.08 µM and 1.01 µM	–
CC(C)CN1C[C@H]2CCN(C(=O)C3CCCO3)CC[C@H]2S1(=O)=O (stereo partly drawn)	> 50.1 µM	–	IC50 [2]: > 50.1 µM; IC50 [3]: > 50.1 µM
CC1=C(C#N)C(=O)N(C)C(=O)/C1=C\C1=Cc2ccccc2OC1	> 50.1 µM	1.12 µM and 1.35 µM and 1.76 µM and 1.15 µM	–
Cc1noc(C(C)Nc2ccc3oc(C)nc3c2)n1 (stereo not drawn)	> 50.1 µM	23.9 µM and 20.4 µM	–
COC(=O)c1ccc(OC)c(Cn2cc(N)cn2)c1	> 50.1 µM	56.4 µM and 66 µM	–
CC(C)Cc1ccc(S(=O)(=O)Nc2ccc(=O)n(C)c2)cc1	> 50.1 µM	12.5 µM and 18.7 µM	–
N#Cc1cc2c(=O)n(CC(O)C(F)(F)F)ccc2[nH]c1=O (stereo not drawn)	> 50.1 µM	–	IC50 (ClpP1P2): > 100 µM
COCCN(Cc1ccc(F)cc1Cl)C(=O)c1ccc(=O)[nH]n1	> 50.1 µM	–	Percent Effect (Schistosoma mansoni): -14.07%
CC(NC(=O)C1=NN(C)C(=O)CC1)c1ccc(Cl)cc1Cl (stereo not drawn)	> 50.1 µM	–	Percent Effect (Schistosoma mansoni): -38.06%
COCCn1cc(NC(=O)C(C)CCc2ccccc2F)ccc1=O (stereo not drawn)	> 50.1 µM	3.96 µM and 4.01 µM	–
CC(C)NC(=O)N1CCC(c2nnc3n2CCNC3)CC1	> 50.1 µM	14.9 µM and 14.8 µM	–
COCCc1ncc(-c2c(C#N)c(N)nc3c2CCc2[nH]ccc2-3)cn1	> 50.1 µM	6.54 µM and 5.62 µM	–
CCCn1nc2c(cc1=O)CN(c1ncnc3ccsc13)CC2	> 50.1 µM	43.5 µM and 33.5 µM	–
CC(=O)N1CC(=O)N(c2ccsc2)CC12CCN(Cc1ccccn1)C2 (stereo not drawn)	> 50.1 µM	–	–
COc1c(C)cnc(CN(C)C(=O)c2ccccc2O)c1C	> 50.1 µM	–	–
CCc1cc2cc(OC)c(OC)cc2nc1SCCN1CCCCC1	> 50.1 µM	–	–

Structure (SMILES)	IC50 (Lysine--tRNA ligase)	IC50 (Histidine--tRNA ligase)	other results
NS(=O)(=O)c1ccc(NC(=O)CSc2ccc3c(c2)CCC3)cc1	> 50.1 µM	–	–
CC(NC(=O)NCCCOc1ccccc1F)c1nncn1C (stereo not drawn)	> 50.1 µM	–	–
Cc1nc[nH]c1CN1CCn2nc(CN3Cc4ccccc4C3)cc2C1	> 50.1 µM	–	–
O=C(NCCc1ccccn1)C1=NN(c2ccccc2)C(=O)CN1	> 50.1 µM	–	–
O=C(Cc1ccc(Cl)s1)Nc1ccc2c(c1)C(=O)NC2=O	> 50.1 µM	–	–
Cc1ccc([C@@H]2CN(C(=O)c3cc(C)no3)C[C@H]2NC(=O)C2CC2)cc1	> 50.1 µM	–	–
Cc1nc(C)c(C)c(N(C)CCCc2nccn2C)n1	> 50.1 µM	–	–
CCN(C)C(=O)c1cc(-c2ccn(C(C)C)n2)n2ccccc12	> 50.1 µM	–	–
COCCOc1ccccc1C(=O)N(C)Cc1ncc(C)c(OC)c1C	> 50.1 µM	–	–
CCOCC1CN(C(=O)c2cnoc2C)Cc2cn(CC3CC3)nc21 (stereo not drawn)	> 50.1 µM	–	–
CCOC(=O)C1CCCN(Cc2cc(C#N)n(C)c2C)C1 (stereo not drawn)	> 50.1 µM	–	–
Cc1cccc(-c2noc(CN3CCc4nn(C)c(=O)cc4C3)n2)c1	> 50.1 µM	9.38 µM and 11.6 µM	–
Cn1c(CN2CCCc3cc(F)cc(F)c32)cc(=O)n(C)c1=O	> 50.1 µM	–	–
COc1ccc(CC(=O)N2CCCC(c3nncn3C)C2)cc1 (stereo not drawn)	> 50.1 µM	–	–
Cc1cc(C)c2c(NCC3(O)CCCCC3)ncnc2n1	> 50.1 µM	–	–
O=C(CCNC(=O)c1ccoc1)Nc1cc(F)cc(F)c1	> 50.1 µM	–	–
Cn1ncc2c(=O)[nH]c(CN3CCCC3c3cccs3)nc21 (stereo not drawn)	> 50.1 µM	–	–
Cc1ccn2ncc(C(=O)N3CCCC(n4nc(C)nc4C)C3)c2n1 (stereo not drawn)	> 50.1 µM	–	–
c1cc(-c2cn[nH]c2)ncc1CN1CCCCC1	> 50.1 µM	–	–
Cn1cccc(NC(=O)N2CCC(Cc3ccccc3)C2)c1=O (stereo not drawn)	> 50.1 µM	9.56 µM and 6.68 µM	–
Cc1cc(C)c2nc(CNC3CCNC3=O)cc(O)c2c1 (stereo not drawn)	> 50.1 µM	–	–
NC(=O)c1csc(N2CCCC(c3n[nH]c(=O)n3-c3ccccc3)C2)n1 (stereo not drawn)	> 50.1 µM	–	–
CN(Cc1cccs1)C1CCC[C@@H]2CN(C(=O)c3cccn3C)C[C@H]12 (stereo partly drawn)	> 50.1 µM	–	–
O=C(CC1COCCN1)N1CCC(N2CCc3ccccc3C2)CC1 (stereo not drawn)	> 50.1 µM	–	–
